Values joined by “and” are separate entries in the source; they are usually repeats but may differ in a detail not shown here. Identical values can stand only once. Toxic doses and inconclusive results are not listed.
Test system: L1210 leukemia ip in BDF1 mice, survival T/C
Experiment: NCI In Vivo Anticancer Drug Screen. Data for tumor model L1210 Leukemia (intraperitoneal) in B6D2F1 (BDF1) mice
Details: endpoint: mean survival time, higher = longer survival
How it was run: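 Tumor was transplanted into mice, which were then dosed with test compound or vehicle alone. Survival was recorded for each group, and the treated figure was expressed relative to the control figure.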

[1] = dose: 100.0 mg/kg/injection, schedule: Q01DX009 (ip), vehicle: Klucel (hydroxypropylcellulose) (HPC)
[2] = dose: 200.0 mg/kg/injection, schedule: Q01DX009 (ip), vehicle: Klucel (hydroxypropylcellulose) (HPC)
[3] = dose: 50.0 mg/kg/injection, schedule: Q04DX003 (ip), vehicle: saline
[4] = dose: 100.0 mg/kg/injection, schedule: Q04DX003 (ip), vehicle: Klucel (hydroxypropylcellulose) (HPC)
[5] = dose: 100.0 mg/kg/injection, schedule: Q04DX003 (ip), vehicle: saline
[6] = dose: 200.0 mg/kg/injection, schedule: Q04DX003 (ip), vehicle: Klucel (hydroxypropylcellulose) (HPC)
[7] = dose: 400.0 mg/kg/injection, schedule: Q04DX003 (ip), vehicle: Klucel (hydroxypropylcellulose) (HPC)
[8] = dose: 12.5 mg/kg/injection, schedule: Q01DX009 (ip), vehicle: saline
[9] = dose: 25.0 mg/kg/injection, schedule: Q01DX009 (ip), vehicle: saline
[10] = dose: 100.0 mg/kg/injection, schedule: Q04DX003 (ip), vehicle: other
[11] = dose: 200.0 mg/kg/injection, schedule: Q04DX003 (ip), vehicle: other
[12] = dose: 400.0 mg/kg/injection, schedule: Q01DX009 (ip), vehicle: Klucel (hydroxypropylcellulose) (HPC)

## CCNP(=O)(CCl)NC12CC3CC(CC(C3)C1)C2 (stereo unspecified)
dose: 50.0 mg/kg/injection, schedule: Q01DX009 (ip), vehicle: Klucel (hydroxypropylcellulose) (HPC)
  T/C: 91 % of control
[1]
  T/C: 93 % of control
[2]
  T/C: 93 % of control

## CN(C)/N=C\c1ccc(C(=O)O)cc1
dose: 50.0 mg/kg/injection, schedule: Q04DX003 (ip), vehicle: Klucel (hydroxypropylcellulose) (HPC)
  T/C: 92 % of control
[3]
  T/C: 114 % of control
[4]
  T/C: 88 % of control
[5]
  T/C: 109 % of control
[6]
  T/C: 95 % of control
dose: 200.0 mg/kg/injection, schedule: Q04DX003 (ip), vehicle: saline
  T/C: 114 % of control
[7]
  T/C: 93 % of control
dose: 400.0 mg/kg/injection, schedule: Q04DX003 (ip), vehicle: saline
  T/C: 100 % of control

## COc1cc(C)n2nnnc2n1
dose: 25.0 mg/kg/injection, schedule: Q01DX001 (ip), vehicle: saline
  T/C: 91 % of control
dose: 50.0 mg/kg/injection, schedule: Q01DX001 (ip), vehicle: saline
  T/C: 96 % of control
dose: 100.0 mg/kg/injection, schedule: Q01DX001 (ip), vehicle: saline
  T/C: 96 % of control

## CC1(C)N=C(N)N=C(N)N1c1cccc(CC(=O)Nc2ccccc2)c1
[8]
  T/C: 102 % of control
[9]
  T/C: 98 % of control
dose: 50.0 mg/kg/injection, schedule: Q01DX009 (ip), vehicle: saline
  T/C: 102 % of control
dose: 100.0 mg/kg/injection, schedule: Q01DX009 (ip), vehicle: saline
  T/C: 96 % of control
dose: 200.0 mg/kg/injection, schedule: Q01DX009 (ip), vehicle: saline
  T/C: 98 % of control

## COC(=O)c1cc2nc(C(C)C)n(Cc3ccccc3)c2cc1C(=O)OC
dose: 100.0 mg/kg/injection, schedule: Q01DX001 (ip), vehicle: other
  T/C: 99 % of control
dose: 100.0 mg/kg/injection, schedule: Q01DX009 (ip), vehicle: other
  T/C: 104 % of control and 87 % of control
dose: 100.0 mg/kg/injection, schedule: Q04DX002 (ip), vehicle: Klucel (hydroxypropylcellulose) (HPC)
  T/C: 105 % of control
dose: 100.0 mg/kg/injection, schedule: Q04DX002 (ip), vehicle: other
  T/C: 102 % of control and 91 % of control
[10]
  T/C: 107 % of control
dose: 200.0 mg/kg/injection, schedule: Q01DX001 (ip), vehicle: other
  T/C: 100 % of control
dose: 200.0 mg/kg/injection, schedule: Q01DX009 (ip), vehicle: other
  T/C: 101 % of control and 90 % of control
dose: 200.0 mg/kg/injection, schedule: Q04DX002 (ip), vehicle: Klucel (hydroxypropylcellulose) (HPC)
  T/C: 98 % of control
dose: 200.0 mg/kg/injection, schedule: Q04DX002 (ip), vehicle: other
  T/C: 95 % of control and 108 % of control
[11]
  T/C: 109 % of control
dose: 400.0 mg/kg/injection, schedule: Q01DX001 (ip), vehicle: other
  T/C: 89 % of control
dose: 400.0 mg/kg/injection, schedule: Q01DX009 (ip), vehicle: other
  T/C: 97 % of control and 106 % of control
dose: 400.0 mg/kg/injection, schedule: Q04DX002 (ip), vehicle: Klucel (hydroxypropylcellulose) (HPC)
  T/C: 102 % of control
dose: 400.0 mg/kg/injection, schedule: Q04DX002 (ip), vehicle: other
  T/C: 95 % of control and 107 % of control
dose: 400.0 mg/kg/injection, schedule: Q04DX003 (ip), vehicle: other
  T/C: 105 % of control

## O=C(NC(CO)C(O)c1ccc(N=Nc2cccc3ccccc23)cc1)C(Cl)Cl (stereo unspecified)
dose: 100.0 mg/kg/injection, schedule: Q04DX003 (ip), vehicle: saline with Tween-80
  T/C: 101 % of control
dose: 200.0 mg/kg/injection, schedule: Q04DX003 (ip), vehicle: saline with Tween-80
  T/C: 95 % of control
dose: 400.0 mg/kg/injection, schedule: Q04DX003 (ip), vehicle: saline with Tween-80
  T/C: 93 % of control

## O=C(O)CC(C(=O)O)(c1c[nH]c2ccccc12)c1c[nH]c2ccccc12
dose: 75.0 mg/kg/injection, schedule: Q01DX001 (ip), vehicle: carboxymethylcellulose (CMC)
  T/C: 89 % of control
dose: 150.0 mg/kg/injection, schedule: Q01DX001 (ip), vehicle: carboxymethylcellulose (CMC)
  T/C: 93 % of control
dose: 300.0 mg/kg/injection, schedule: Q01DX001 (ip), vehicle: carboxymethylcellulose (CMC)
  T/C: 90 % of control

## CCC[CH2][Sn]([CH2]CCC)([O]C(C)=O)[O]C(C)=O
dose: 3.0 mg/kg/injection, schedule: Q01DX009 (ip), vehicle: saline
  T/C: 106 % of control
dose: 6.12 mg/kg/injection, schedule: Q01DX009 (ip), vehicle: saline
  T/C: 101 % of control
[8]
  T/C: 108 % of control
[9]
  T/C: 89 % of control

## CC(C)=CCc1ccc(Cl)cc1
dose: 50.0 mg/kg/injection, schedule: Q01DX009 (ip), vehicle: saline with Tween-80
  T/C: 94 % of control
dose: 100.0 mg/kg/injection, schedule: Q01DX009 (ip), vehicle: saline with Tween-80
  T/C: 105 % of control
dose: 200.0 mg/kg/injection, schedule: Q01DX009 (ip), vehicle: saline with Tween-80
  T/C: 102 % of control

## O=C(Oc1ccccc1Cl)c1ccc(Cl)cc1Cl
[1]
  T/C: 91 % of control
[4]
  T/C: 93 % of control
[2]
  T/C: 90 % of control
[6]
  T/C: 96 % of control
[12]
  T/C: 91 % of control
[7]
  T/C: 98 % of control

## CCCNC(=NC)c1ccc(NC(=O)c2ccc(C(=O)Nc3ccc(C(=NC)NCCC)cc3)cc2)cc1
dose: 1.6 mg/kg/injection, schedule: Q01DX Z (ip), vehicle: saline
  T/C: 94 % of control
dose: 2.4 mg/kg/injection, schedule: Q01DX Z (ip), vehicle: saline
  T/C: 111 % of control
dose: 3.6 mg/kg/injection, schedule: Q01DX Z (ip), vehicle: saline
  T/C: 107 % of control and 120 % of control
dose: 5.5 mg/kg/injection, schedule: Q01DX Z (ip), vehicle: saline
  T/C: 156 % of control and 162 % of control
dose: 8.3 mg/kg/injection, schedule: Q01DX Z (ip), vehicle: saline
  T/C: 151 % of control and 172 % of control
dose: 12.5 mg/kg/injection, schedule: Q## X000 (oral), vehicle: saline
  T/C: 103 % of control
dose: 25.0 mg/kg/injection, schedule: Q## X000 (oral), vehicle: saline
  T/C: 100 % of control
dose: 50.0 mg/kg/injection, schedule: Q## X000 (oral), vehicle: saline
  T/C: 101 % of control
dose: 250.0 mg/kg/injection, schedule: Q01DX010 (oral), vehicle: saline
  T/C: 107 % of control
dose: 500.0 mg/kg/injection, schedule: Q01DX010 (oral), vehicle: saline
  T/C: 114 % of control

## CC(C)c1ccc2c(c1)CCC1C(CN=C(N)CSS(=O)(=O)O)CCCC21C (stereo unspecified)
dose: 75.0 mg/kg/injection, schedule: Q01DX001 (ip), vehicle: saline with Tween-80
  T/C: 95 % of control
dose: 150.0 mg/kg/injection, schedule: Q01DX001 (ip), vehicle: saline with Tween-80
  T/C: 102 % of control

## CC[NH-].CC[NH-].[Br][Pt+2][Br]
[10]
  T/C: 122 % of control
[11]
  T/C: 105 % of control

## CCCCCCCCCCN1C(=O)C(Cl)=C(Cl)C1=O
dose: 25.0 mg/kg/injection, schedule: Q04DX003 (ip), vehicle: saline with Tween-80
  T/C: 103 % of control
dose: 50.0 mg/kg/injection, schedule: Q04DX003 (ip), vehicle: saline with Tween-80
  T/C: 94 % of control

## CC(=O)N1CCN(C(C)=O)c2ccccc21
[4]
  T/C: 106 % of control
[6]
  T/C: 103 % of control
[7]
  T/C: 106 % of control

## CC(C)(C(=Nc1ccccc1)N1CCCCC1)c1ccccc1
dose: 75.0 mg/kg/injection, schedule: Q01DX001 (ip), vehicle: saline
  T/C: 97 % of control
dose: 150.0 mg/kg/injection, schedule: Q01DX001 (ip), vehicle: saline
  T/C: 94 % of control
dose: 300.0 mg/kg/injection, schedule: Q01DX001 (ip), vehicle: saline
  T/C: 96 % of control

## Nc1nc(N)c2nc(CNC3CCCCC3)cnc2n1
dose: 20.0 mg/kg/injection, schedule: Q01DX009 (ip), vehicle: Klucel (hydroxypropylcellulose) (HPC)
  T/C: 95 % of control
dose: 40.0 mg/kg/injection, schedule: Q01DX009 (ip), vehicle: Klucel (hydroxypropylcellulose) (HPC)
  T/C: 93 % of control
dose: 80.0 mg/kg/injection, schedule: Q01DX009 (ip), vehicle: Klucel (hydroxypropylcellulose) (HPC)
  T/C: 97 % of control

## COc1ccccc1C(=Nc1ccccc1)N(O)c1ccccc1
dose: 2.5 mg/kg/injection, schedule: Q01DX009 (ip), vehicle: saline with Tween-80
  T/C: 93 % of control
dose: 5.0 mg/kg/injection, schedule: Q01DX009 (ip), vehicle: saline with Tween-80
  T/C: 103 % of control

## CC1=CC(=O)NC1=O
dose: 25.0 mg/kg/injection, schedule: Q04DX003 (ip), vehicle: saline
  T/C: 103 % of control
[3]
  T/C: 98 % of control
[5]
  T/C: 97 % of control

## COc1cccc(OC)c1OC(=O)Nc1ccccc1F
[1]
  T/C: 105 % of control
[2]
  T/C: 106 % of control
[12]
  T/C: 106 % of control
